Test systems include SNB-75 CNS; SW-620 colon; T-47D breast; RPMI-8226 leukemia; MDA-MB-435; SN12C renal; NCI-H522 lung; 786-0 renal; HL-60(TB) leukemia; HT29 colon.
Common to all, as to assay: growth of human tumour cells (NCI), 48 h

Values joined by “and” are separate entries in the source; they are usually repeats but may differ in a detail not shown here. Identical values can stand only once.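 Five concentrations, 48 hours, 96-well plates. GI50 is the concentration that inhibits growth by half. TGI: concentration producing complete growth inhibition.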 Some results are limits rather than exact numbers.

For the compound `C[C@H](N)C(=O)N[C@@H]1[C@H]2C(=C(O)C[C@@H](O)[C@@H]2O)C(=O)O[C@]1(C)C(Cl)Cl`, the GI50 in the experiment on SNB-75 CNS is 0.226 µM; in the experiment on SW-620 colon it was 0.221 µM; with T-47D breast, 0.8 µM; in the experiment with RPMI-8226 leukemia, 0.261 µM and 0.161 µM; with MDA-MB-435, 0.309 µM; in the experiment with SN12C renal it was 0.212 µM. In addition, the GI50 in the experiment with NCI-H522 lung was 0.191 µM; in the experiment on 786-0 renal, 0.246 µM; in the experiment on HL-60(TB) leukemia, 0.254 µM and 0.149 µM; with HT29 colon, 0.282 µM. In addition, the TGI is 3.85 µM and 1.07 µM in the experiment on SNB-75 CNS; 6.6 µM and 3 µM with SW-620 colon; 7.69 µM and 4.18 µM with T-47D breast; 2.57 µM and 2.35 µM in the experiment on RPMI-8226 leukemia; 3.42 µM and 0.86 µM in the experiment on MDA-MB-435; 1.23 µM and 1.67 µM in the experiment with SN12C renal. The TGI was 0.955 µM and 0.755 µM in the experiment on NCI-H522 lung; 10.9 µM and 1.8 µM with 786-0 renal; 1.69 µM and 1.3 µM in the experiment on HT29 colon.

For `O=c1[nH]cc(/C=N\Nc2ccccc2)c(=O)[nH]1`, the TGI with SNB-75 CNS, with SW-620 colon, in the experiment on T-47D breast, in the experiment on RPMI-8226 leukemia, in the experiment with MDA-MB-435 and in the experiment with SN12C renal was above 100 µM each time. For the same compound, the TGI in the experiment with NCI-H522 lung, in the experiment with 786-0 renal, in the experiment on HL-60(TB) leukemia and in the experiment on HT29 colon was above 100 µM each time.

For the compound `C=CC(=O)N1C/C(=C\c2ccccc2)C(=O)/C(=C/c2ccccc2)C1`, the TGI in the experiment on SNB-75 CNS was 10 µM; in the experiment on SW-620 colon, 0.831 µM; in the experiment with T-47D breast, 18.4 µM; in the experiment with RPMI-8226 leukemia, 0.871 µM and 1.08 µM; in the experiment with MDA-MB-435, 2.1 µM; in the experiment with SN12C renal it was 3.44 µM. Also, the TGI with NCI-H522 lung was found to be 3.49 µM; in the experiment with 786-0 renal, 2.54 µM; in the experiment on HL-60(TB) leukemia, 7.4 µM; with HT29 colon it was 2.87 µM. Also, the GI50 in the experiment with SW-620 colon is 0.534 µM; with RPMI-8226 leukemia, 0.17 µM; with MDA-MB-435, 0.27 µM; in the experiment on NCI-H522 lung, 0.348 µM; in the experiment with HL-60(TB) leukemia it was 0.805 µM; with HT29 colon it was 0.528 µM.

Take `CNC1C(O)C(OC2C(N)CC(N)C(OC3OC(CN)=CCC3N)C2O)OCC1(C)O` (centres undefined): the TGI with SNB-75 CNS, in the experiment with SW-620 colon, in the experiment on T-47D breast, in the experiment with RPMI-8226 leukemia, in the experiment on MDA-MB-435 and with SN12C renal was above 100 µM throughout. Further, the TGI with NCI-H522 lung, in the experiment with 786-0 renal, in the experiment with HL-60(TB) leukemia and in the experiment on HT29 colon was above 100 µM throughout.

As to `NC(=O)/C(=C\c1ccncc1)c1cccc2ccccc12`, the TGI with SNB-75 CNS, in the experiment on SW-620 colon, in the experiment on T-47D breast, with RPMI-8226 leukemia, in the experiment on MDA-MB-435 and with SN12C renal was above 100 µM each time. Moreover, the TGI with NCI-H522 lung, with 786-0 renal, in the experiment on HL-60(TB) leukemia and in the experiment with HT29 colon was above 100 µM each time.

With `CCCCCCCCCCCCNC(=O)[C@H]1CSC(c2cc3ccccc3s2)N1` (some centres undefined), the GI50 with SNB-75 CNS is 0.599 µM; in the experiment with SW-620 colon, 2.3 µM; in the experiment with T-47D breast, 5.5 µM; with RPMI-8226 leukemia, 6 µM; in the experiment on MDA-MB-435, 0.605 µM; in the experiment on SN12C renal, 2.8 µM. For the same compound, the GI50 is 5.11 µM in the experiment with NCI-H522 lung, 4.6 µM with 786-0 renal, 0.154 µM with HL-60(TB) leukemia and 1.74 µM in the experiment with HT29 colon. The TGI was 1.12 µM in the experiment on SNB-75 CNS; 7.93 µM in the experiment with SW-620 colon; 12.3 µM in the experiment with T-47D breast; 15.3 µM in the experiment with RPMI-8226 leukemia; 1.19 µM in the experiment with MDA-MB-435; 7.24 µM in the experiment with SN12C renal. In addition, the TGI was 11.1 µM with NCI-H522 lung, 9.11 µM with 786-0 renal, 8.69 µM in the experiment with HL-60(TB) leukemia and 5.87 µM with HT29 colon.

Turning to `COC(=O)[C@@]1(Cc2ccccc2)[C@H]2c3cc(C(=O)N4CCCC4)n(Cc4ccc(OC)c(OC)c4)c3C[C@H]2CN1C(=O)c1ccccc1`, the GI50 in the experiment with SNB-75 CNS is 17.4 µM; in the experiment on SW-620 colon, 6.92 µM; in the experiment on T-47D breast it was 9.55 µM; in the experiment on RPMI-8226 leukemia, 10.8 µM; in the experiment with MDA-MB-435 it was 11.7 µM; in the experiment on SN12C renal, 9.96 µM. In addition, the GI50 is 8.73 µM with NCI-H522 lung, 13.7 µM in the experiment on 786-0 renal, 8.96 µM in the experiment on HL-60(TB) leukemia and 9.12 µM with HT29 colon. In addition, the TGI with SNB-75 CNS was above 50 µM; in the experiment on SW-620 colon, 13.4 µM; in the experiment on T-47D breast it was 32.1 µM; in the experiment with RPMI-8226 leukemia it was 23.5 µM; in the experiment on MDA-MB-435, 32.8 µM; in the experiment with SN12C renal, 24.8 µM. In addition, the TGI was 19.6 µM in the experiment with NCI-H522 lung, above 50 µM in the experiment on 786-0 renal, 24.8 µM with HL-60(TB) leukemia and 25 µM in the experiment on HT29 colon.

On to `CN1CCC(CNc2ccc3ncc(-c4cccc(OC(F)(F)F)c4)n3n2)CC1`, for which the GI50 in the experiment on SNB-75 CNS was 1.39 µM and 1.09 µM; in the experiment with SW-620 colon it was 2.03 µM and 2.13 µM; with T-47D breast, 1.44 µM and 1.28 µM; in the experiment with RPMI-8226 leukemia, 2.41 µM and 1.91 µM; in the experiment with MDA-MB-435, 1.42 µM and 1.54 µM; in the experiment with SN12C renal, 2.14 µM and 2.3 µM. The GI50 is 1.64 µM and 1.52 µM in the experiment on NCI-H522 lung; 1.78 µM and 1.69 µM with 786-0 renal; 1.54 µM and 1 µM in the experiment on HL-60(TB) leukemia; 1.75 µM and 1.85 µM in the experiment with HT29 colon. The TGI is 4.46 µM and 8.12 µM in the experiment on SNB-75 CNS; 4.77 µM and 6.09 µM in the experiment on SW-620 colon; 3.01 µM and 3.56 µM in the experiment with T-47D breast; 7.18 µM and 5.36 µM in the experiment on RPMI-8226 leukemia; 2.96 µM and 3.4 µM with MDA-MB-435; 7.14 µM and > 10 µM in the experiment on SN12C renal. Also, the TGI was 3.33 µM and 3.57 µM in the experiment on NCI-H522 lung; 3.45 µM and 4.06 µM in the experiment with 786-0 renal; 3.79 µM and 2.89 µM with HL-60(TB) leukemia; 4.49 µM and 5.15 µM in the experiment with HT29 colon.

In the case of `O=C(CCCCCCCn1cc(-c2cccnc2)nn1)Nc1ccccc1-c1ccccc1`, the GI50 is 29.8 µM in the experiment with SNB-75 CNS; 0.0526 µM in the experiment with SW-620 colon; 1.44 µM with T-47D breast; 0.401 µM in the experiment on RPMI-8226 leukemia; 0.305 µM in the experiment on MDA-MB-435; 0.0475 µM in the experiment with SN12C renal. Also, the GI50 is 0.0508 µM in the experiment on NCI-H522 lung, 4.13 µM in the experiment on 786-0 renal, 4.74 µM in the experiment with HL-60(TB) leukemia and 0.506 µM in the experiment with HT29 colon. Moreover, the TGI in the experiment with SNB-75 CNS was above 100 µM; in the experiment on SW-620 colon, above 100 µM; in the experiment with T-47D breast it was 28 µM; in the experiment on RPMI-8226 leukemia it was above 77.9 µM; in the experiment on MDA-MB-435, 13.2 µM; in the experiment on SN12C renal, above 100 µM. Further, the TGI with 786-0 renal was above 100 µM; in the experiment with HL-60(TB) leukemia, 29.1 µM; in the experiment on HT29 colon, above 100 µM.
